Test results: PMC6017357, “In Vitro Inhibitory Effects of Synthetic Cannabinoid EAM-2201 on Cytochrome P450 and UDP-Glucuronosyltransferase Enzyme Activities in Human Liver Microsomes” (Molecules : A Journal of Synthetic Chemistry and Natural …, 2018)

How the values were obtained:
[1] = target: T1, CYP2D6 (Homo sapiens, UniProt P10635); assay: CYP2D6-mediated bufuralol 1′-hydroxylation in pooled human liver microsomes; type: in vitro ADME; conditions: up to 50 µM, without 30-min preincubation
T1 construct: from tissue; host or cells: ultrapooled human liver microsomes
Experimental: The inhibitory potential (IC50 values) of EAM-2201 on CYP1A2, CYP2A6, CYP2C8, CYP2C9, CYP2C19, CYP2D6 and CYP3A4 were evaluated using ultrapooled human liver microsomes and a cocktail of seven CYP substrates followed by LC-tandem mass spectrometry (LC-MS/MS) as previously described. […] Aliquots (5 µL) of the diluted supernatants were analyzed using LC-MS/MS. […]
(§1) The metabolites formed from CYP substrates were simultaneously quantified using our previously described LC-MS/MS method. […] Quantification was performed by selected reaction monitoring (SRM) of the [M + H]^+ ion and the related product ion for each metabolite: acetaminophen, 152.1 > 110.3; N-desethylamodiaquine, 328.1 > 283.0; 7-hydroxycoumarin, 163.0 > 107.2; 4-hydroxybupropion, 256.1 > 238.0; 4′-hydroxydiclofenac, 312.0 > 231.1; 4′-hydroxy-mephenytoin, 235.1 > 150.1; 1′-hydroxybufuralol, 278.1 > 186.1; 1′-hydroxymidazolam, 341.9 > 324.0; ^13C2,^15N-acetaminophen, 155.1 > 111.2; and d9-1′-hydroxybufuralol, 287.2 > 187.0. […]

[2] = target: T2, CYP2B6 (Homo sapiens, UniProt P20813); assay: CYP2B6-mediated bupropion hydroxylation in pooled human liver microsomes; type: in vitro ADME; conditions: up to 50 µM, without 30-min preincubation
T2 construct: from tissue; host or cells: ultrapooled human liver microsomes
T2 sequence (P20813 1-491): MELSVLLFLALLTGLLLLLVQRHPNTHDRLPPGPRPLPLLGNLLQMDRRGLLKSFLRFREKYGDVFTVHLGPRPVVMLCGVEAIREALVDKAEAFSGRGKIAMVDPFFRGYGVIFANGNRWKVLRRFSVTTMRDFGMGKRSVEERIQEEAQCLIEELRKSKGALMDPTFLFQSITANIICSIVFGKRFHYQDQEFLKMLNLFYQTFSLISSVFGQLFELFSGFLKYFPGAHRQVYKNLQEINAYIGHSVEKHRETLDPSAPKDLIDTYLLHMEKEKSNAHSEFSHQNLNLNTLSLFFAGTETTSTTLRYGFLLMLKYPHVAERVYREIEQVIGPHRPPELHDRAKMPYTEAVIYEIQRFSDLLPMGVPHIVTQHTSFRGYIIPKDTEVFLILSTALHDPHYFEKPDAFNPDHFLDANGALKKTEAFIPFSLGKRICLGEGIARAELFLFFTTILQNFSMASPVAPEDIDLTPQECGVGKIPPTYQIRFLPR
Experimental: The inhibitory effects (IC50 values) of EAM-2201 on CYP2B6-catalyzed bupropion 4-hydroxylase activity were determined in ultrapooled human liver microsomes using LC-MS/MS [41]. Each incubation mixture was prepared in a total volume of 100 µL as follows: pooled human liver microsomes (5.2 pmol CYP), 1.0 mM NADPH, 10 mM magnesium chloride, 50 mM potassium phosphate buffer (pH 7.4), various concentrations of EAM-2201 in DMSO (final 0.1–50 µM, 0.5% DMSO) and CYP2B6-selective substrate and 50 µM bupropion. After a 3-min preincubation at 37 °C, reactions were initiated by adding NADPH, followed by incubation for 15 min at 37 °C in a shaking water bath. […] Aliquots (5 µL) of the diluted supernatants were analyzed by LC-MS/MS. […]
as §1

T1 sequence (P10635 whole entry): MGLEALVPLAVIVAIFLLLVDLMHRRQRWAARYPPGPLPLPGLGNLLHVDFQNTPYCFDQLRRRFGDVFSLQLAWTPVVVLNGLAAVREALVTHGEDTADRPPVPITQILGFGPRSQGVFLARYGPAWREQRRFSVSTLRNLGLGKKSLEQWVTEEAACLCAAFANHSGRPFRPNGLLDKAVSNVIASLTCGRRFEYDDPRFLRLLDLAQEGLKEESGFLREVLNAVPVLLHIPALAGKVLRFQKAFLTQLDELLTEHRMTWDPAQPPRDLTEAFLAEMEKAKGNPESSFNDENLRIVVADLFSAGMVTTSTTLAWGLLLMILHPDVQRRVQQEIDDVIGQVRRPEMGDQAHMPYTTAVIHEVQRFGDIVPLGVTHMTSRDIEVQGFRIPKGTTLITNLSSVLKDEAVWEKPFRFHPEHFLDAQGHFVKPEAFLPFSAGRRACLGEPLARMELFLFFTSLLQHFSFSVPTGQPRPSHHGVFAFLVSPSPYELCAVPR

Structure (SMILES): CCc1ccc(C(=O)c2cn(CCCCCF)c3ccccc23)c2ccccc12 [EAM-2201, (4-ethyl-1-naphthalenyl)[1-(5-fluoropentyl)-1H-indol-3-yl]-methanone]
- inhibition of CYP2D6-mediated bufuralol 1′-hydroxylation [1]: negligibly inhibited
- inhibition of CYP2B6-mediated bupropion hydroxylation [2]: negligibly inhibited
